Measured values from patent US12391648B2, “Pyridyloxy thioester derivative and preparation method therefor, herbicidal composition, and application” (Qingdao Kingagroot Chemical Compound Co., Ltd., priority 2018, dated 2025).

Experiments:
Experiment in all cases: Post-emergence test experiment (Table 3, 1000 g/ha)
Format in all cases: in vivo
Details in all cases: post-emergence spray, after 3 weeks, fresh weight inhibition
Abutilon theophrasti = tested on: Abutilon theophrasti
From the text: (§1) The activity level standard of harmful plants destruction (i. e. growth inhibition rate) is as follows: • Level 5: the growth inhibition rate is greater than 85%; • Level 4: the growth inhibition rate is equal to or greater than 60% and less than 85%; • Level 3: the growth inhibition rate is equal to or greater than 40% and less than 60%; • Level 2: the growth inhibition rate is equal to or greater than 20% and less than 40%; • Level 1: the growth inhibition rate is equal to or greater than 5% and less than 20%; • Level 0: the growth inhibition rate is less than 5%;
(§2) The above described growth inhibition rate is fresh weight inhibition rate.
(§3) Post-emergence test experiment: Monocotyledonous and dicotyledonous weed seeds and main crop seeds (i. e. wheat, corn, rice, soybean, cotton, oilseed, millet and sorghum.) were put into a plastic pot loaded with soil. Then covered with 0.5-2 cm soil, the seeds were allowed to grow in good greenhouse environment. The test plants were treated at 2-3 leaf stage 2 weeks after sowing. The test compounds of the invention were dissolved with acetone respectively, then added with tween-80, and using 1.5 liters per hectare of an emulsible concentrate of methyl oleate as a synergist, and diluted by certain amount of water to certain concentration. The solution was sprayed to the plants with a sprayer. Then the plants were cultured for 3 weeks in the greenhouse, and the experiment result of weed controlling effect after 3 weeks was listed in tables 3-4.

Digitaria sanguinalis = tested on: Digitaria sanguinalis
From the text: as §1, §2, §3

Galium spurium = tested on: Galium spurium
From the text: as §1, §2, §3

Leptochloa chinensis = tested on: Leptochloa chinensis
From the text: as §1, §2, §3

Monochoria vaginalis = tested on: Monochoria vaginalis
From the text: as §1, §2, §3

Setaria viridis = tested on: Setaria viridis
From the text: as §1, §2, §3

SMILES: CCCCCCC(C)SC(=O)C(C)Oc1nc(F)c(Cl)c(N)c1Cl (stereo not drawn) [Compound 135]
- Activity level (growth inhibition rate) Abutilon theophrasti (Abutilon theophrasti): 5 (Level 5: the growth inhibition rate is greater than 85%)
- Activity level (growth inhibition rate) Digitaria sanguinalis (Digitaria sanguinalis): 5 (Level 5: the growth inhibition rate is greater than 85%)
- Activity level (growth inhibition rate) Galium spurium (Galium spurium): 5 (Level 5: the growth inhibition rate is greater than 85%)
- Activity level (growth inhibition rate) Leptochloa chinensis (Leptochloa chinensis): 5 (Level 5: the growth inhibition rate is greater than 85%)
- Activity level (growth inhibition rate) Monochoria Vaginalis (Monochoria vaginalis): 5 (Level 5: the growth inhibition rate is greater than 85%)
- Activity level (growth inhibition rate) Setaria viridis (Setaria viridis): 5 (Level 5: the growth inhibition rate is greater than 85%)

SMILES: CSC(=O)C(Oc1nc(F)c(Cl)c(N)c1Cl)c1cncnc1 (stereo not drawn) [Compound 64]
- Activity level (growth inhibition rate) Abutilon theophrasti (Abutilon theophrasti): 5 (Level 5: the growth inhibition rate is greater than 85%)
- Activity level (growth inhibition rate) Galium spurium (Galium spurium): 5 (Level 5: the growth inhibition rate is greater than 85%)
- Activity level (growth inhibition rate) Monochoria Vaginalis (Monochoria vaginalis): 5 (Level 5: the growth inhibition rate is greater than 85%)

SMILES: CSC(=O)C(Oc1nc(F)c(Cl)c(N)c1Cl)C1CC1 (stereo not drawn) [Compound 28]
- Activity level (growth inhibition rate) Abutilon theophrasti (Abutilon theophrasti): 5 (Level 5: the growth inhibition rate is greater than 85%)
- Activity level (growth inhibition rate) Galium spurium (Galium spurium): 5 (Level 5: the growth inhibition rate is greater than 85%)
- Activity level (growth inhibition rate) Monochoria Vaginalis (Monochoria vaginalis): 5 (Level 5: the growth inhibition rate is greater than 85%)

SMILES: CSC(=O)C(C#N)Oc1nc(F)c(Cl)c(N)c1Cl (stereo not drawn) [Compound 43]
- Activity level (growth inhibition rate) Abutilon theophrasti (Abutilon theophrasti): 5 (Level 5: the growth inhibition rate is greater than 85%)
- Activity level (growth inhibition rate) Galium spurium (Galium spurium): 5 (Level 5: the growth inhibition rate is greater than 85%)
- Activity level (growth inhibition rate) Monochoria Vaginalis (Monochoria vaginalis): 5 (Level 5: the growth inhibition rate is greater than 85%)

SMILES: COC(C)C(Oc1nc(F)c(Cl)c(N)c1Cl)C(=O)SC (stereo not drawn) [Compound 31]
- Activity level (growth inhibition rate) Abutilon theophrasti (Abutilon theophrasti): 5 (Level 5: the growth inhibition rate is greater than 85%)
- Activity level (growth inhibition rate) Galium spurium (Galium spurium): 5 (Level 5: the growth inhibition rate is greater than 85%)
- Activity level (growth inhibition rate) Monochoria Vaginalis (Monochoria vaginalis): 5 (Level 5: the growth inhibition rate is greater than 85%)

SMILES: CSC(=O)C(Oc1nc(F)c(Cl)c(N)c1Cl)C(F)(F)F (stereo not drawn) [Compound 41]
- Activity level (growth inhibition rate) Abutilon theophrasti (Abutilon theophrasti): 5 (Level 5: the growth inhibition rate is greater than 85%)
- Activity level (growth inhibition rate) Galium spurium (Galium spurium): 5 (Level 5: the growth inhibition rate is greater than 85%)
- Activity level (growth inhibition rate) Monochoria Vaginalis (Monochoria vaginalis): 5 (Level 5: the growth inhibition rate is greater than 85%)

SMILES: CSC(=O)C(Oc1nc(F)c(Cl)c(N)c1Cl)c1cccc(Cl)c1 (stereo not drawn) [Compound 61]
- Activity level (growth inhibition rate) Abutilon theophrasti (Abutilon theophrasti): 5 (Level 5: the growth inhibition rate is greater than 85%)
- Activity level (growth inhibition rate) Galium spurium (Galium spurium): 5 (Level 5: the growth inhibition rate is greater than 85%)
- Activity level (growth inhibition rate) Monochoria Vaginalis (Monochoria vaginalis): 5 (Level 5: the growth inhibition rate is greater than 85%)

SMILES: CCCC(Oc1nc(F)c(Cl)c(N)c1Cl)C(=O)SC (stereo not drawn) [Compound 26]
- Activity level (growth inhibition rate) Abutilon theophrasti (Abutilon theophrasti): 5 (Level 5: the growth inhibition rate is greater than 85%)
- Activity level (growth inhibition rate) Galium spurium (Galium spurium): 5 (Level 5: the growth inhibition rate is greater than 85%)
- Activity level (growth inhibition rate) Monochoria Vaginalis (Monochoria vaginalis): 5 (Level 5: the growth inhibition rate is greater than 85%)

SMILES: CCSC(=O)C(Oc1nc(F)c(Cl)c(N)c1Cl)c1ccc(C(F)(F)F)cc1 (stereo not drawn) [Compound 60]
- Activity level (growth inhibition rate) Abutilon theophrasti (Abutilon theophrasti): 5 (Level 5: the growth inhibition rate is greater than 85%)
- Activity level (growth inhibition rate) Galium spurium (Galium spurium): 5 (Level 5: the growth inhibition rate is greater than 85%)
- Activity level (growth inhibition rate) Monochoria Vaginalis (Monochoria vaginalis): 5 (Level 5: the growth inhibition rate is greater than 85%)

SMILES: CCC(Oc1nc(F)c(Cl)c(N)c1Cl)C(=O)SC (stereo not drawn) [Compound 25]
- Activity level (growth inhibition rate) Abutilon theophrasti (Abutilon theophrasti): 5 (Level 5: the growth inhibition rate is greater than 85%)
- Activity level (growth inhibition rate) Galium spurium (Galium spurium): 5 (Level 5: the growth inhibition rate is greater than 85%)
- Activity level (growth inhibition rate) Monochoria Vaginalis (Monochoria vaginalis): 5 (Level 5: the growth inhibition rate is greater than 85%)

SMILES: COc1ccc(C(Oc2nc(F)c(Cl)c(N)c2Cl)C(=O)SC)c(C)c1 (stereo not drawn) [Compound 62]
- Activity level (growth inhibition rate) Abutilon theophrasti (Abutilon theophrasti): 5 (Level 5: the growth inhibition rate is greater than 85%)
- Activity level (growth inhibition rate) Galium spurium (Galium spurium): 5 (Level 5: the growth inhibition rate is greater than 85%)
- Activity level (growth inhibition rate) Monochoria Vaginalis (Monochoria vaginalis): 5 (Level 5: the growth inhibition rate is greater than 85%)

SMILES: CSC(=O)C(Oc1nc(F)c(Cl)c(N)c1Cl)c1ccc2ccccc2c1 (stereo not drawn) [Compound 65]
- Activity level (growth inhibition rate) Abutilon theophrasti (Abutilon theophrasti): 5 (Level 5: the growth inhibition rate is greater than 85%)
- Activity level (growth inhibition rate) Galium spurium (Galium spurium): 5 (Level 5: the growth inhibition rate is greater than 85%)
- Activity level (growth inhibition rate) Monochoria Vaginalis (Monochoria vaginalis): 5 (Level 5: the growth inhibition rate is greater than 85%)

SMILES: CSC(=O)C(CCCl)Oc1nc(F)c(Cl)c(N)c1Cl (stereo not drawn) [Compound 40]
- Activity level (growth inhibition rate) Abutilon theophrasti (Abutilon theophrasti): 5 (Level 5: the growth inhibition rate is greater than 85%)
- Activity level (growth inhibition rate) Galium spurium (Galium spurium): 5 (Level 5: the growth inhibition rate is greater than 85%)
- Activity level (growth inhibition rate) Monochoria Vaginalis (Monochoria vaginalis): 5 (Level 5: the growth inhibition rate is greater than 85%)

SMILES: CSC(=O)C(Cc1ccccc1)Oc1nc(F)c(Cl)c(N)c1Cl (stereo not drawn) [Compound 126]
- Activity level (growth inhibition rate) Abutilon theophrasti (Abutilon theophrasti): 5 (Level 5: the growth inhibition rate is greater than 85%)
- Activity level (growth inhibition rate) Galium spurium (Galium spurium): 5 (Level 5: the growth inhibition rate is greater than 85%)
- Activity level (growth inhibition rate) Monochoria Vaginalis (Monochoria vaginalis): 5 (Level 5: the growth inhibition rate is greater than 85%)

SMILES: CSC(=O)C(Oc1nc(F)c(Cl)c(N)c1Cl)c1cn(C)nc1C (stereo not drawn) [Compound 57]
- Activity level (growth inhibition rate) Abutilon theophrasti (Abutilon theophrasti): 5 (Level 5: the growth inhibition rate is greater than 85%)
- Activity level (growth inhibition rate) Galium spurium (Galium spurium): 5 (Level 5: the growth inhibition rate is greater than 85%)
- Activity level (growth inhibition rate) Monochoria Vaginalis (Monochoria vaginalis): 5 (Level 5: the growth inhibition rate is greater than 85%)

SMILES: C#CC(Oc1nc(F)c(Cl)c(N)c1Cl)C(=O)SC (stereo not drawn) [Compound 33]
- Activity level (growth inhibition rate) Abutilon theophrasti (Abutilon theophrasti): 5 (Level 5: the growth inhibition rate is greater than 85%)
- Activity level (growth inhibition rate) Galium spurium (Galium spurium): 5 (Level 5: the growth inhibition rate is greater than 85%)
- Activity level (growth inhibition rate) Monochoria Vaginalis (Monochoria vaginalis): 5 (Level 5: the growth inhibition rate is greater than 85%)

SMILES: CCC(Oc1ncc(Cl)c(N)c1Cl)C(=O)SC (stereo not drawn) [Compound 23]
- Activity level (growth inhibition rate) Abutilon theophrasti (Abutilon theophrasti): 5 (Level 5: the growth inhibition rate is greater than 85%)
- Activity level (growth inhibition rate) Galium spurium (Galium spurium): 5 (Level 5: the growth inhibition rate is greater than 85%)
- Activity level (growth inhibition rate) Monochoria Vaginalis (Monochoria vaginalis): 5 (Level 5: the growth inhibition rate is greater than 85%)

SMILES: CSC(=O)C(Oc1nc(F)c(Cl)c(N)c1Cl)C(F)F (stereo not drawn) [Compound 39]
- Activity level (growth inhibition rate) Abutilon theophrasti (Abutilon theophrasti): 5 (Level 5: the growth inhibition rate is greater than 85%)
- Activity level (growth inhibition rate) Galium spurium (Galium spurium): 5 (Level 5: the growth inhibition rate is greater than 85%)
- Activity level (growth inhibition rate) Monochoria Vaginalis (Monochoria vaginalis): 5 (Level 5: the growth inhibition rate is greater than 85%)

SMILES: CSC(=O)C(CN(C)C)Oc1nc(F)c(Cl)c(N)c1Cl (stereo not drawn) [Compound 46]
- Activity level (growth inhibition rate) Abutilon theophrasti (Abutilon theophrasti): 5 (Level 5: the growth inhibition rate is greater than 85%)
- Activity level (growth inhibition rate) Galium spurium (Galium spurium): 5 (Level 5: the growth inhibition rate is greater than 85%)
- Activity level (growth inhibition rate) Monochoria Vaginalis (Monochoria vaginalis): 5 (Level 5: the growth inhibition rate is greater than 85%)

SMILES: CCn1nccc1C(Oc1nc(F)c(Cl)c(N)c1Cl)C(=O)SC (stereo not drawn) [Compound 56]
- Activity level (growth inhibition rate) Abutilon theophrasti (Abutilon theophrasti): 5 (Level 5: the growth inhibition rate is greater than 85%)
- Activity level (growth inhibition rate) Galium spurium (Galium spurium): 5 (Level 5: the growth inhibition rate is greater than 85%)
- Activity level (growth inhibition rate) Monochoria Vaginalis (Monochoria vaginalis): 5 (Level 5: the growth inhibition rate is greater than 85%)

SMILES: CSC(=O)C(Br)Oc1nc(F)c(Cl)c(N)c1Cl (stereo not drawn) [Compound 36]
- Activity level (growth inhibition rate) Abutilon theophrasti (Abutilon theophrasti): 5 (Level 5: the growth inhibition rate is greater than 85%)
- Activity level (growth inhibition rate) Galium spurium (Galium spurium): 5 (Level 5: the growth inhibition rate is greater than 85%)
- Activity level (growth inhibition rate) Monochoria Vaginalis (Monochoria vaginalis): 5 (Level 5: the growth inhibition rate is greater than 85%)

SMILES: COC(Oc1nc(F)c(Cl)c(N)c1Cl)C(=O)SC (stereo not drawn) [Compound 50]
- Activity level (growth inhibition rate) Abutilon theophrasti (Abutilon theophrasti): 5 (Level 5: the growth inhibition rate is greater than 85%)
- Activity level (growth inhibition rate) Galium spurium (Galium spurium): 5 (Level 5: the growth inhibition rate is greater than 85%)
- Activity level (growth inhibition rate) Monochoria Vaginalis (Monochoria vaginalis): 5 (Level 5: the growth inhibition rate is greater than 85%)

SMILES: CSC(=O)C(CO)Oc1nc(F)c(Cl)c(N)c1Cl (stereo not drawn) [Compound 48]
- Activity level (growth inhibition rate) Abutilon theophrasti (Abutilon theophrasti): 5 (Level 5: the growth inhibition rate is greater than 85%)
- Activity level (growth inhibition rate) Galium spurium (Galium spurium): 5 (Level 5: the growth inhibition rate is greater than 85%)
- Activity level (growth inhibition rate) Monochoria Vaginalis (Monochoria vaginalis): 5 (Level 5: the growth inhibition rate is greater than 85%)

SMILES: CSC(=O)C(F)Oc1nc(F)c(Cl)c(N)c1Cl (stereo not drawn) [Compound 34]
- Activity level (growth inhibition rate) Abutilon theophrasti (Abutilon theophrasti): 5 (Level 5: the growth inhibition rate is greater than 85%)
- Activity level (growth inhibition rate) Galium spurium (Galium spurium): 5 (Level 5: the growth inhibition rate is greater than 85%)
- Activity level (growth inhibition rate) Monochoria Vaginalis (Monochoria vaginalis): 5 (Level 5: the growth inhibition rate is greater than 85%)
